In article PMC6934184, “Selective DNA-PKcs inhibition extends the therapeutic index of localized radiotherapy and chemotherapy” (The Journal of Clinical Investigation, 2019):

Molecular target: T1, FGFR3 (Homo sapiens, UniProt P22607)
T1 construct: purchased Thermo Fisher Scientific (Life Technologies) SelectScreen
Experiment: SelectScreen Z'LYTE
Assay type: biochemical
Method in brief: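 Percent values come from Thermo SelectScreen profiling of NU5455, combining activity and binding assays. CSF1R was run in Z'LYTE format at Km app ATP, and CAMK1 in Adapta format with ATP listed at 10.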

T1 sequence (P22607 23-806): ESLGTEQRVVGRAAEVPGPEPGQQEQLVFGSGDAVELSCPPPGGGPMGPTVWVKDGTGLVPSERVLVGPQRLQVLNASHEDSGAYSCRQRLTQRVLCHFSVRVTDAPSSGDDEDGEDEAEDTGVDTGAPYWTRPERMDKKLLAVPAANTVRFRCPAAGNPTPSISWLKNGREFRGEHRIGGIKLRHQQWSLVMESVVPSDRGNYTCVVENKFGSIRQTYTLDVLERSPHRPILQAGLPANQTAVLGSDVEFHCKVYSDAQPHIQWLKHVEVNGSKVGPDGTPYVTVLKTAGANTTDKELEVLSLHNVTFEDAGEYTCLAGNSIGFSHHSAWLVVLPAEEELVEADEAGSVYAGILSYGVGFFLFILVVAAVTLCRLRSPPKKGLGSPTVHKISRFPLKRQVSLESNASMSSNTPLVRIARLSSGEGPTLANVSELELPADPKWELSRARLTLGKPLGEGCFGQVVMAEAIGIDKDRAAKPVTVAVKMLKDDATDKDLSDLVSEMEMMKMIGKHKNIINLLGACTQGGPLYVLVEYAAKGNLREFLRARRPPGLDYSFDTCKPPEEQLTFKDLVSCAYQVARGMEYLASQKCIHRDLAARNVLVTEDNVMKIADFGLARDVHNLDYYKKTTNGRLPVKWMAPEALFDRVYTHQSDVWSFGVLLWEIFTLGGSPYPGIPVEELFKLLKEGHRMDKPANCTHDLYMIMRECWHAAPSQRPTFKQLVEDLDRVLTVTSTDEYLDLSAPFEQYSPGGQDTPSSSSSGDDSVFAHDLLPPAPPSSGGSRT

## CN(C(=O)CN1CCOCC1)c1ccc2sc3c(-c4cccc5c(=O)cc(N6CC7CCC(C6)O7)oc45)cccc3c2c1 [NU5455]
  inhibition at 1 µM: 0.9%
